Consider three molecules from US5240933A, “14-hydroxy-N-(2-methoxyethyl)-7,8-dihydromorphine and -norisomorphine, processes for the preparation thereof and the use thereof as pharmaceutical compositions” (Boehringer Ingelheim GmbH, priority 1991, dated 1993).

The nature of test [1]: phenylquinone writhing test (analgesic effect). The format is in vivo. On the procedure: (§1) In this test, compound 1a according to the invention has a mean effective dose (MED) of 2.5 mg/kg p.o. (64% effect) and compound 1b according to the invention has an MED of 10 mg/kg p.o. (71% effect). […] This small sodium shift indicates the […] nature of the compounds according to the invention.

The target in test [2] is opiate receptor (Homo sapiens, UniProt P35372). Kind of test: opiate receptor binding test with [^3 H]-dihydromorphine as radioligand. Here is the method: as §1
Test [3] deals with opiate receptor. As to the kind of experiment: opiate receptor binding test with [^3 H]-naloxon as radioligand. Here is the method: as §1
Where [4] appears, read: with the addition of 0.1M sodium chloride.

Sequence of opiate receptor (Homo sapiens, UniProt P35372) (P35372 whole entry): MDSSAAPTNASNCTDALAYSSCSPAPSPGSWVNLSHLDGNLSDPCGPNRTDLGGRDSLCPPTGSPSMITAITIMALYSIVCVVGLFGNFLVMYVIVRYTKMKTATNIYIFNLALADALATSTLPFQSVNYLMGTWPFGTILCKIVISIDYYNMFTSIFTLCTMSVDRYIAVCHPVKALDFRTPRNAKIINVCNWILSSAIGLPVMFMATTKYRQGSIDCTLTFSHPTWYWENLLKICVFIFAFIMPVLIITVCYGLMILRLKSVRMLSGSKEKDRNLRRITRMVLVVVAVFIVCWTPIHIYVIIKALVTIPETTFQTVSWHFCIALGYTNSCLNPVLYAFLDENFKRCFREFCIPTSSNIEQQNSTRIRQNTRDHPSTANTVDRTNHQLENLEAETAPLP

With `COCCN1CC[C@]23c4c5ccc(O)c4O[C@H]2[C@@H](O)CC[C@@]3(O)[C@H]1C5` [compound 1a, 14-hydroxy-N-(2-methoxyethyl)-7,8-dihydronormorphine], the effect in test [1] (at MED of 2.5 mg/kg p.o.) was 64%. Also, the values for the inhibition constant Ki at opiate receptor [2], on opiate receptor [3] (setting [4]) and on opiate receptor [3] (without sodium chloride) were 0.91 nM, 2.39 nM and 2.14 nM, respectively.

`CC(C)Cc1ccc(C(C)C(=O)O)cc1` (stereo not drawn) [Ibuprofen, reference compound] came in with an effect in test [1] (dose of 25 mg/kg p.o., comparison compound) of 65%.

In turn, `COCCN1CC[C@]23c4c5ccc(O)c4O[C@H]2[C@H](O)CC[C@@]3(O)[C@H]1C5` [compound 1b, 14-hydroxy-N-(2-methoxyethyl)-7,8-dihydronorisomorphine] returned an effect in test [1] (at MED of 10 mg/kg p.o.) of 71%. Moreover, the Ki at opiate receptor [2] came to 1.79 nM; on opiate receptor [3] (setting [4]), 1.19 nM; on opiate receptor [3] (without sodium chloride) it was 1.07 nM.

As a reminder, the Ki is the dissociation constant of the complex between target and ligand, obtained from inhibition or displacement. A higher Ki goes with lower affinity.
